Where two headings read alike, the source gives them in different places.
Experiments:
Parameters in all cases: species or system AML cell lines (8); Primary HTS, single concentration about 10 uM, Cell Titer Glo viability; log10 luminescence, per cent inhibition relative to cycloheximide control
Details in all cases: 72 h, inhibitor
M07e = tested on: M07e
CMS = tested on: CMS
CMK = tested on: CMK
ML-2 = tested on: ML-2
U937 = tested on: U937
CHRF288-11 = tested on: CHRF288-11
MV4-11 = tested on: MV4-11
MOLM-13 = tested on: MOLM-13
[1] = relative to cycloheximide control, log10 luminescence

SMILES	M07e %inh (M07e; [1]) [%]	CMS %inh (CMS; [1]) [%]	CMK %inh (CMK; [1]) [%]	ML-2 %inh (ML-2; [1]) [%]	U937 %inh (U937; [1]) [%]	CHRF288-11 %inh (CHRF288-11; [1]) [%]	MV4-11 %inh (MV4-11; [1]) [%]	MOLM-13 %inh (MOLM-13; [1]) [%]	M07e %inh (M07e; 10 µM) [%]	CMS %inh (CMS; 10 µM) [%]	CMK %inh (CMK; 10 µM) [%]	ML-2 %inh (ML-2; 10 µM) [%]	U937 %inh (U937; 10 µM) [%]	CHRF288-11 %inh (CHRF288-11; 10 µM) [%]	MV4-11 %inh (MV4-11; 10 µM) [%]	MOLM-13 %inh (MOLM-13; 10 µM) [%]
Fc1ccc(-c2nn3ccccc3c2-c2ccncc2)cc1 [SJ000573260-1, U11781/145/5]	0.2861	-2.539	8.765	-1.762	4.651	-2.859	4.558	0.1728								
CCn1c(-c2nonc2N)nc2c(N3CCCC3)nccc21 [SJ000573261-1, DW100508-128A1]	5.656	5.321	3.861	3.187	-1.967	2.981	6.029	1.048								
Fc1cccc(COc2ccc(Nc3ncncc3C#Cc3ccccc3)cc2Cl)c1 [SJ000573262-1, U15872/50/1]	-0.005299	-2.059	-0.522	1.8	1.725	-1.921	1.812	-0.1156								
COc1cc(/C=N/Nc2ncnc3[nH]ncc23)ccc1O [SJ000573263-1, U15117/8/1]	4.954	3.056	1.246	0.3724	2.504	2.923	32.98	34.62								
CCN1CCC(CC(=O)Nc2n[nH]c3nc(-c4cccs4)c(Br)cc23)CC1 [SJ000573264-1, AG201339-025C2]	7.209	7.013	18.01	-1.837	1.142	10.8	29.41	8.584								
CCOc1ccc2c(-c3ccnc(Nc4cccc(C(F)(F)F)c4)n3)cnn2n1 [SJ000573265-1, U17838/110/3]	6.84	0.8077	-2.107	2.429	-3.226	2.566	2.829	1.961								
COC(=O)Nc1nc2cc(Oc3ccc(NC(=O)Nc4cccc(Br)c4)cc3)ccc2[nH]1 [SJ000573266-1, T261/62/3]	12.78	26.73	40.21	3.598	79.03	12.69	65.99	76.65								
COc1cc(/C=N/Nc2ncnc3c2cnn3C(C)C)ccc1O [SJ000573267-1, T237/25/6]									6.424	9.426	41.95	8.895	8.888	29.61	40.62	52.9
O=C1NC(=O)C(N2CCc3ccccc32)=C1c1ccc(Cl)cc1 [SJ000573268-1, DH97836-102A1]	-0.7324	-3.009	4.78	-0.2823	0.6171	52.52	95.01	0.0382								
Cc1ccc(O)cc1Nc1ccnc2cc(-c3ccccn3)ccc12 [SJ000573269-1, R1902/28/3 | HC 206053 | GW440139B | | RTP SMTECH | SID124349934 | TCMDC-138201 | GW440139B |]	10.95	4.641	50.01	1.439	14.95	60.6	3.761	20.29								
CCOc1nccc2c1nc(-c1nonc1N)n2CC [SJ000573270-1, DW100508-082A1]	-0.5841	-3.21	45.39	28.26	-1.837	53.12	-0.5042	-1.635								
O=C(Nc1n[nH]c2nc(-c3ccco3)ccc12)C1CC1 [SJ000573271-1, VB100064-193A1]	-1.707	0.8699	-3.194	-0.1888	-4.198	7.062	-0.2919	1.202								
Cc1ccc(C(=O)NC2CC2)cc1-c1ccc2[nH]ncc2c1 [SJ000573272-1, R8615/48/1]	0.6909	0.2308	0.7696	0.7274	1.222	1.821	1.257	-2.369								
CCCN1CCC=C(c2ccc(Nc3nc(Nc4ccccc4C(N)=O)c4cc[nH]c4n3)c(C)c2)C1 [SJ000573273-1, U22972/6/1]	19.9	2.734	24.28	20.08	14.36	54.2	28.66	49.41								
COc1cc(Nc2nccc(-c3cnn4ncccc34)n2)cc(OC)c1 [SJ000573274-1, U16419/146/1]	113.9	100.2	84.54	59.09	80.29	52.5	76.66	76.09								
CC(C)c1ccc(-c2cc(-c3c[nH]nc3-c3ccccn3)ccn2)cc1 [SJ000573275-1, FVLN/241/7/1]	2.317	-0.3112	0.9087	1.414	0.007743	9.433	4.536	2.021								
Fc1ccc(-c2cc(-c3c[nH]nc3-c3ccccn3)ccn2)cc1 [SJ000573276-1, FCJB/213/107/1]	-1.13	-1.917	15.4	4.336	16.91	-1.896	1.718	10.74								
COc1ccc(-c2cc(-c3c[nH]nc3-c3ccccn3)ccn2)cc1 [SJ000573277-1, FFJG/208/167/1]	1.202	0.9761	4.937	-0.1507	7.208	12.63	4.2	2.31								
Nc1nc(-c2ccccn2)c(-c2ccc3ncccc3n2)s1 [SJ000573278-1, FAMP/256/57/4]	0.9531	0.3275	2.499	2.846	-0.9094	2.264	-2.996	2.605								
c1ccc(-c2n[nH]cc2-c2ccnc(-c3ccc(OCCN4CCOCC4)cc3)c2)nc1 [SJ000573279-1, FVLN/241/86/2]	-4.621	-2.932	0.1656	-0.6736	-1.579	1.18	1.132	4.641								
CN(c1ccc(NC(=O)Nc2ccc(OC(F)(F)F)cc2)cc1)c1ccnc(Nc2cccc(S(N)(=O)=O)c2)n1 [SJ000573281-1, U17983/20/3]	21.34	4.771	57.59	11.59	20.62	54	82.54	77.33								
N#Cc1c(NC(=O)c2ccc(F)cc2)sc2c1CCCC2 [SJ000573282-1, R15619/128/1]	6.55	0.2829	5.634	2.372	2.356	20.67	-0.9119	3.13								
Cc1c2ccc(N(C)c3ccnc(Nc4cccc(S(N)(=O)=O)c4)n3)cc2nn1C [SJ000573283-1, U17574/40/1]	4.447	2.522	33.97	3.984	17.32	6.19	13.33	26.58								

— PMC6522510 (Nature Communications, 2019)
